Laboratory results: EP4389751A1, “HETEROCYCLIC COMPOUNDS AND USES THEREOF” (Kumquat Biosciences Inc., priority 2021, dated 2024)
Read-outs that look alike come from different tables or passages of the source.

Key:
K-Ras G12S = target: T1, K-Ras G12S (Homo sapiens, UniProt P01116, G12S); assay: HTRF assay of the K-Ras / SOS1 interaction; format: biochemical; conditions: IC50 (against K-Ras G12D) to IC50 (against K-Ras G12S)
T1 construct: made in house; host or cells: E. coli (e.g., BL21 (DE3))
Summary of the method: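 GST-K-Ras G12S with anti-GST-Eu donor and His-hSOS1 with anti-6His-XL665 acceptor in ~5 mM HEPES pH 7.4, ~150 mM NaCl, 1 mM DTT, 0.05% BSA, 0.0025% Igepal. Read after ~10 min or longer; IC50 from 665/620 nm ratio, duplicates at 10 µM down to 0.01 µM.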

A549 cells = assay: Cell proliferation assay (CellTiter-Glo), K-Ras G12S cells; format: cell-based; conditions: for IC50: Homo sapiens; for ratio of IC50 against a G12D cell line to IC50 against a G12S cell line: K-Ras G12D cell line such as GP2D relative to K-Ras G12S cell line such as A549, greater than 1, 2, 3, 4, 5, 10, 15 or even greater, 8640 min
Summary of the method: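 A549 cells (K-Ras G12S) in RPMI-1640 with 10% FBS, seeded in standard or ultra-low-attachment plates and dosed next day with a 10-point 3-fold series. Viability read about 6 days later by CellTiter-Glo luminescence. IC50 from four-parameter fit.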

[1] = A549, A549 cells (K-Ras G12S), bin ≤ 500 nM, read-out: Inhibition of A549 Cells (IC50)
[2] = A549, A549 cells (K-Ras G12S), bin 500 nM to 5 µM, read-out: Inhibition of A549 Cells (IC50)
[3] = A549, read-out: Inhibition of A549 Cells (IC50)

T1 sequence (P01116 1-188 isoform P01116-2 G12S): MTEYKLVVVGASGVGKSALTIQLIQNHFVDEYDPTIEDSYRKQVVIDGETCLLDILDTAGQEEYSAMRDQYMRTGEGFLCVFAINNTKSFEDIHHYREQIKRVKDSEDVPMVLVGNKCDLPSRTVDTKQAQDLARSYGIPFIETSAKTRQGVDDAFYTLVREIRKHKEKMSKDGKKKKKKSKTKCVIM

SMILES	IC50 (A549 cells; [1])	ratio of IC50 against a G12D cell line to IC50 against a G12S cell line (A549 cells)	IC50 (A549 cells; [2])	Ratio of IC50 KRAS G12D vs. IC50 KRAS G12S (K-Ras G12S)	IC50 (A549 cells; [3])
Cc1ncn(C(=O)N2CC3(CCCN(c4nc(OC[C@@]56CCCN5C[C@H](F)C6)nc5c(F)c(-c6ccc(F)c7sc(N)c(C#N)c67)c(Cl)cc45)C3)C2)n1 [Compound A102, 2-amino-4-(6-chloro-8-fluoro-2-(((2R,7aS)-2-fluorotetrahydro-1H-pyrrolizin-7 a(5H)-yl)methoxy)-4-(2-(3-methyl-1H-1,2,4-triazole-1-carbonyl)-2,6-diazaspiro[3.5]nonan-6-yl)quinazolin-7-yl)-7-fluorobenzo[b]thiophene-3-carbonitrile]	≤ 500 nM	greater than 1		A (A: indicates that the ratio of IC50 against KrasG12D vs. IC50 against KrasG12S is 1-fold or greater)	
N#CCc1ncn(C(=O)N2CC3(C2)CN(c2nc(OC[C@@]45CCCN4C[C@H](F)C5)nc4c(F)c(-c5ccc(F)c6sc(N)c(C#N)c56)c(Cl)cc24)CCO3)n1 [Compound A110, 2-amino-4-(6-chloro-4-(2-(3-(cyanomethyl)-1H-1,2,4-triazole-1-carbonyl)-5-oxa-2,8-diazaspiro[3.5]nonan-8-yl)-8-fluoro-2-(((2R,7aS)-2-fluorotetrahydro-1H-pyrrolizin-7a(5H)-yl)methoxy)quinazolin-7-yl)-7-fluorobenzo[b]thiophene-3-carbonitrile]	≤ 500 nM	greater than 1		A (A: indicates that the ratio of IC50 against KrasG12D vs. IC50 against KrasG12S is 1-fold or greater)	
COCCN1CCC(Oc2nc(N3CCCCC4(CN(C(=O)n5cncn5)C4)C3)c3cc(Cl)c(-c4ccc(F)c5sc(N)c(C#N)c45)c(F)c3n2)CC1 [Compound A119, 4-(4-(2-(1H-1,2,4-triazole-1-carbonyl)-2,6-diazaspiro[3.6]decan-6-yl)-6-chloro-8-fluoro-2-((1-(2-methoxyethyl)piperidin-4-yl)oxy)quinazolin-7-yl)-2-amino-7-fluorobenzo[b]thiophene-3-carbonitrile]			500 to 5000 nM	A (A: indicates that the ratio of IC50 against KrasG12D vs. IC50 against KrasG12S is 1-fold or greater)	
N#Cc1cn(C(=O)N2C3CCC2CN(c2nc(OC[C@@]45CCCN4C[C@H](F)C5)nc4c(F)c(-c5ccc(F)c6sc(N)nc56)c(Cl)cc24)C3)cn1 [Compound A123, 1-(3-(7-(2-amino-7-fluorobenzo[d]thiazol-4-yl)-6-chloro-8-fluoro-2-(((2R,7aS)-2-fluorotetrahydro-1H-pyrrolizin-7a(5H)-yl)methoxy)quinazolin-4-yl)-3,8-diazabicyclo[3.2. 1]octane-8-carbonyl)-1H-imidazole-4-carbonitrile]				A (A: indicates that the ratio of IC50 against KrasG12D vs. IC50 against KrasG12S is 1-fold or greater)	500 to 5000 nM
N#Cc1nccn1C(=O)N1C2CCC1CN(c1nc(OC[C@@]34CCCN3C[C@H](F)C4)nc3c(F)c(-c4ccc(F)c5sc(N)nc45)c(Cl)cc13)C2 [Compound A170, 1-(3-(7-(2-amino-7-fluorobenzo[d]thiazol-4-yl)-6-chloro-8-fluoro-2-(((2R,7aS)-2-fluorotetrahydro-1H-pyrrolizin-7a(5H)-yl)methoxy)quinazolin-4-yl)-3,8-diazabicyclo[3.2. 1]octane-8-carbonyl)-1H-imidazole-2-carbonitrile]				A (A: indicates that the ratio of IC50 against KrasG12D vs. IC50 against KrasG12S is 1-fold or greater)	500 to 5000 nM

The next lines start with results.

IC50 (A549 cells; [1])	ratio of IC50 against a G12D cell line to IC50 against a G12S cell line (A549 cells)	IC50 (A549 cells; [2])	SMILES	Ratio of IC50 KRAS G12D vs. IC50 KRAS G12S (K-Ras G12S)	IC50 (A549 cells; [3])
≤ 500 nM			N#Cc1c(N)sc2c(F)ccc(-c3c(Cl)cc4c(N5CCCC6(CN(C(=O)n7cncn7)C6)C5)nc(OC[C@@]56CCCN5C[C@H](F)C6)nc4c3F)c12 [Compound A129, 4-(4-(2-(1H-1,2,4-triazole-1-carbonyl)-2,6-diazaspiro[3.5]nonan-6-yl)-6-chloro-8-fluoro-2-(((2R,7aS)-2-fluorotetrahydro-1H-pyrrolizin-7a(5H)-yl)methoxy)quinazolin-7-yl)-2-amino-7-fluorobenzo[b]thiophene-3-carbonitrile]	A (A: indicates that the ratio of IC50 against KrasG12D vs. IC50 against KrasG12S is 1-fold or greater)	
		500 to 5000 nM	N#Cc1c(N)sc2c(F)ccc(-c3ncc4c(N5CCCC6(CN(C(=O)n7cncn7)C6)C5)nc(OC[C@@]56CCCN5C[C@H](F)C6)nc4c3F)c12 [Compound A134, 4-(4-(2-(1H-1,2,4-triazole-1-carbonyl)-2,6-diazaspiro[3.5]nonan-6-yl)-8-fluoro-2-(((2R,7aS)-2-fluorotetrahydro-1H-pyrrolizin-7a(5H)-yl)methoxy)pyrido[4,3-d]pyrimidin-7-yl)-2-amino-7-fluorobenzo[b]thiophene-3-carbonitrile]	A (A: indicates that the ratio of IC50 against KrasG12D vs. IC50 against KrasG12S is 1-fold or greater)	
	greater than 1	500 to 5000 nM	Nc1nc2c(-c3c(Cl)cc4c(N5CCCC6(CN(C(=O)n7cncn7)C6)C5)nc(OC[C@@]56CCCN5C[C@H](F)C6)nc4c3F)ccc(F)c2s1 [Compound A136, (6-(7-(2-amino-7-fluorobenzo[d]thiazol-4-yl)-6-chloro-8-fluoro-2-(((2R,7aS)-2-fluorotetrahydro-1H-pyrrolizin-7a(5H)-yl)methoxy)quinazolin-4-yl)-2,6-diazaspiro[3.5]nonan-2-yl)(1H-1,2,4-triazol-1-yl)methanone]	A (A: indicates that the ratio of IC50 against KrasG12D vs. IC50 against KrasG12S is 1-fold or greater)	
≤ 500 nM			CN1CCC[C@H]1COc1nc(N2CCOC3(CN(C(=O)n4cncn4)C3)C2)c2cc(Cl)c(-c3ccc(F)c4sc(N)c(C#N)c34)c(F)c2n1 [Compound A137, 4-(4-(2-(1H-1,2,4-triazole-1-carbonyl)-5-oxa-2,8-diazaspiro[3.5]nonan-8-yl)-6-chloro-8-fluoro-2-(((S)-1-methylpyrrolidin-2-yl)methoxy)quinazolin-7-yl)-2-amino-7-fluorobenzo[b]thiophene-3-carbonitrile]	A (A: indicates that the ratio of IC50 against KrasG12D vs. IC50 against KrasG12S is 1-fold or greater)	
		500 to 5000 nM	Nc1nc2c(-c3c(Cl)cc4c(N5CCN(C(=O)n6cncn6)CC(F)(F)C5)nc(OC[C@@]56CCCN5C[C@H](F)C6)nc4c3F)ccc(F)c2s1 [Compound A141, (4-(7-(2-amino-7-fluorobenzo[d]thiazol-4-yl)-6-chloro-8-fluoro-2-(((2R,7aS)-2-fluorotetrahydro-1H-pyrrolizin-7a(5H)-yl)methoxy)quinazolin-4-yl)-6,6-difluoro-1,4-diazepan-1-yl)(1H-1,2,4-triazol-1-yl)methanone]	A (A: indicates that the ratio of IC50 against KrasG12D vs. IC50 against KrasG12S is 1-fold or greater)	
		500 to 5000 nM	Nc1nc2c(-c3c(Cl)cc4c(N5CCN(C(=O)n6cncn6)CC5)nc(OC[C@@]56CCCN5C[C@H](F)C6)nc4c3F)ccc(F)c2s1 [Compound A146, (4-(7-(2-amino-7-fluorobenzo[d]thiazol-4-yl)-6-chloro-8-fluoro-2-(((2R,7aS)-2-fluorotetrahydro-1H-pyrrolizin-7a(5H)-yl)methoxy)quinazolin-4-yl)piperazin-1-yl)(1H-1,2,4-triazol-1-yl)methanone]	A (A: indicates that the ratio of IC50 against KrasG12D vs. IC50 against KrasG12S is 1-fold or greater)	
≤ 500 nM			Cc1ncn(C(=O)N2CC3(C2)CN(c2nc(OC[C@@]45CCCN4C[C@H](F)C5)nc4c(F)c(-c5ccc(F)c6sc(N)c(C#N)c56)c(Cl)cc24)CCO3)n1 [Compound A148, 2-amino-4-(6-chloro-8-fluoro-2-(((2R,7aS)-2-fluorotetrahydro-1H-pyrrolizin-7 a(5H)-yl)methoxy)-4-(2-(3-methyl-1H-1,2,4-triazole-1-carbonyl)-5-oxa-2,8-diazaspiro[3.5]nonan-8-yl)quinazolin-7-yl)-7-fluorobenzo[b]thiophene-3-carbonitrile]	A (A: indicates that the ratio of IC50 against KrasG12D vs. IC50 against KrasG12S is 1-fold or greater)	
≤ 500 nM	greater than 1		N#Cc1c(N)sc2c(F)ccc(-c3c(Cl)cc4c(N5CCC6C5CCCN6C(=O)n5cncn5)nc(OC[C@@]56CCCN5C[C@H](F)C6)nc4c3F)c12 (stereo partly drawn) [Compound A152, 4-(4-(4-(1H-1,2,4-triazole-1-carbonyl)octahydro-1H-pyrrolo[3,2-b]pyridin-1-yl)-6-chloro-8-fluoro-2-(((2R,7aS)-2-fluorotetrahydro-1H-pyrrolizin-7a(5H)-yl)methoxy)quinazolin-7-yl)-2-amino-7-fluorobenzo[b]thiophene-3-carbonitrile]	A (A: indicates that the ratio of IC50 against KrasG12D vs. IC50 against KrasG12S is 1-fold or greater)	
